Laboratory results taken from patent US11969428B2, “Methods and pharmaceutical compositions for treating lymphoid malignancy” (priority 2011, dated 2024).

Key:
[1] = biological target: p110δ (Homo sapiens, UniProt O00329); assay: ex-vivo PI3 kinase assay using recombinant PI3K; assay type: biochemical; details: ATP at Km
Protocol: (§1) CAL-130 is a derivative of IC87114 (Gilead Sciences, Foster City, CA), the synthesis of which has been previously described (Sadhu et al., 2003 and Sadhu et al., U.S. Pat. Nos. 6,518,277 and 6,667,300, which are incorporated by reference as if recited in full herein). […] values for CAL-130 inhibition of PI3K isoforms were determined in ex-vivo PI3 kinase assays using recombinant PI3K. A 10-point kinase inhibitory profile was determined with ATP at a concentration consistent with the Km for each enzyme (Puri et al., 2004).

[2] = biological target: p110γ (Homo sapiens, UniProt P48736); assay: ex-vivo PI3 kinase assay using recombinant PI3K; assay type: biochemical; details: ATP at Km
Protocol: as §1

[3] = biological target: p110α (Homo sapiens, UniProt P42336); assay: ex-vivo PI3 kinase assay using recombinant PI3K; assay type: biochemical; details: ATP at Km
Protocol: as §1

[4] = biological target: p110β (Homo sapiens, UniProt P42338); assay: ex-vivo PI3 kinase assay using recombinant PI3K; assay type: biochemical; details: ATP at Km
Protocol: as §1

[5] = tested on: Ca2+ flux in thymocytes; assay: Calcium flux assay after TCR cross-linking; assay type: cell-based, mouse; details: wild type thymocytes; to levels of Pik3cg−/−;pik3cd−/− counterparts
Protocol: Thymocytes or lymphocytes were preloaded with Fluo-4 AM (Molecular Probes, Eugene, OR) at 5 μg/mL for 30 minutes at 37° C., labeled with anti-CD4-APC conjugate (BD Biosciences) to permit gating on this T-cell subset during analysis, and finally washed and resuspended (2×10^6/mL) in DMEM and 10% FCS. After a baseline was established at quiescence, Ca^2+ flux was induced by the addition in tandem of anti-CD3e (hamster antimouse antibody; BD Biosciences) and the anti-hamster IgG polyclonal antibody (Jackson ImmunoResearch, West Grove, PA) for cross-linking. The resultant flux in Ca^2+ was measured for 5 minutes by flow cytometry, and total flux was established by the addition of ionomycin (0.5 μg/mL). Drug inhibition of Ca^2+ flux was measured after 30 minute pre-incubation with CAL-130 at room temperature of dye loaded cells. Percentage overall change in Ca^2+ flux is reported as (Ca^2+ fluxpeak−Ca^2+ fluxbaseline/Ca^2+fluxionomycin−Ca^2+fluxbaseline)×100.

[6] = tested on: primary human T-ALL tumor cells; assay: Akt phosphorylation in primary T-ALL samples (immunoblot); assay type: cell-based; details: 6 hours of treatment
Protocol: Cell lysates (from cell lines or thymocytes) were prepared on ice in M-PER Mammalian Protein Extraction reagent (Pierce) containing a cocktail of protease and phosphatase inhibitors (Swat et al., 2006). Equal amounts of total protein from lysates were subjected to SDS-PAGE, transferred to PVDF membrane (Immobilon-P, Millipore), and membranes probed by overnight incubation with appropriate primary antibodies. Bound antibodies were visualized with HRP-conjugated secondary antibodies and ECL chemistry (SuperPico West, Pierce).

[7] = biological target: T1, IRAK3 (Homo sapiens, UniProt Q9Y616); assay: Ambit KinomeScan screening; assay type: binding; details: CAL-130 10 μM
T1 construct: purchased Ambit (KinomeScan screening)
Protocol: (§2) CAL-130 (10 μM) was evaluated for its ability to prevent tagged kinases from interacting with immobilized “bait” ligand (Karaman et al., 2008). Results are reported as “% of control binding”, where lower numbers indicate stronger interactions with the tagged kinase. Values of >35% are considered “no hits”. PI3Kδ had the lowest percentage of control binding at 0.2% followed by PI3Kγ at 3.2% (See Table 1 below). These values indicate a high probability of a potent interaction. 353 kinases were assessed in the screen (Table 2).

[8] = biological target: T2, PCTK1 (Homo sapiens, UniProt Q00536); assay: Ambit KinomeScan screening; assay type: binding; details: CAL-130 10 μM
T2 construct: unspecified tag ('tagged kinases'); purchased Ambit (KinomeScan screening)
Protocol: as §2

[9] = biological target: T3, BMX (Homo sapiens, UniProt P51813); assay: Ambit KinomeScan screening; assay type: binding; details: CAL-130 10 μM
T3 construct: unspecified tag ("tagged kinases"); purchased Ambit (KinomeScan screening)
Protocol: as §2

[10] = biological target: T4, QSK (Homo sapiens, UniProt Q9Y2K2); assay: Ambit KinomeScan screening; assay type: binding; details: CAL-130 10 μM
T4 construct: tag (kind not specified); purchased Ambit (KinomeScan screening service)
Protocol: as §2

[11] = biological target: T5, MAP3K4 (Homo sapiens, UniProt Q9Y6R4); assay: Ambit KinomeScan screening; assay type: binding; details: CAL-130 10 μM
T5 construct: Ambit (KinomeScan screening)
Protocol: as §2

[12] = biological target: T6, PAK2 (Homo sapiens, UniProt Q13177); assay: Ambit KinomeScan screening; assay type: binding; details: CAL-130 10 μM
T6 construct: purchased Ambit (KinomeScan screening service)
Protocol: as §2

[13] = biological target: T7, MET(Y1235D) (Homo sapiens, UniProt P08581, Y1235D); assay: Ambit KinomeScan screening; assay type: binding; details: CAL-130 10 μM
T7 construct: unspecified tag ('tagged kinases'); purchased Ambit (KinomeScan screening)
Protocol: as §2

[14] = biological target: T8, BRSK1 (Homo sapiens, UniProt Q8TDC3); assay: Ambit KinomeScan screening; assay type: binding; details: CAL-130 10 μM
T8 construct: unspecified tag ("tagged kinases"); purchased Ambit (KinomeScan screening)
Protocol: as §2

[15] = biological target: T9, DCAMKL3 (Homo sapiens, UniProt Q9C098); assay: Ambit KinomeScan screening; assay type: binding; details: CAL-130 10 μM
T9 construct: unspecified tag ("tagged kinases"); purchased Ambit (KinomeScan screening service)
Protocol: as §2

[16] = biological target: T10, LYN (Homo sapiens, UniProt P07948); assay: Ambit KinomeScan screening; assay type: binding; details: CAL-130 10 μM
T10 construct: unspecified tag ('tagged kinases'); purchased Ambit (KinomeScan screening service)
Protocol: as §2

[17] = tested on: thymocytes; assay: Effect on thymi of 6 week old mice treated 7 days; assay type: in vivo, mouse; details: 10 mg kg−1 every 8 hours for 7 days
Protocol: Cell counts were measured on a Hemavet 850FS system (CDC Technologies, Oxford, CT), and standard procedures were followed for staining cells with the following antibody conjugates for flow cytometry (BD Biosciences, San Jose, CA) (Cella et al., 2004): phycoerythrin (PE) anti-CD4 (clone H129.19), fluorescein (FITC), PE, cytochrome c (CyC), or biotin anti-CD8a, FITC CD3c, CyC anti-B220, and Thy 1.2. Biotinylated antibodies were detected with either streptavidin-PE or streptavidin-CyC. Subsets of DN thymocytes were analyzed based on expression of CD25 and CD44 after gating out cells that stained with a cocktail of biotinylated antibodies to CD4, CD8, B220, Mac-1, and Gr-1 followed by streptavidin Cy-Chrome.
To assess the in vivo efficacy of the inhibitor, its effects on thymi of 6 week old mice were determined, specifically for its ability to recapitulate the phenotype observed when both p110γ and p110δ are deficient. Animals received 10 mg kg^−1 of the inhibitor orally, which was sufficient to maintain plasma concentrations of 0.33±0.18 μM at the end of 8 hours (FIG. 16D). […] In particular, there was a 18-fold reduction in total thymocyte number in comparison to controls, which was primarily due to the loss of DP population (FIG. 16H). These observations are consistent with the ability of CAL-130 to preferentially block the function of both PI3Kγ and PI3Kδ.

Chain of p110β (P42338 whole entry, species assumed): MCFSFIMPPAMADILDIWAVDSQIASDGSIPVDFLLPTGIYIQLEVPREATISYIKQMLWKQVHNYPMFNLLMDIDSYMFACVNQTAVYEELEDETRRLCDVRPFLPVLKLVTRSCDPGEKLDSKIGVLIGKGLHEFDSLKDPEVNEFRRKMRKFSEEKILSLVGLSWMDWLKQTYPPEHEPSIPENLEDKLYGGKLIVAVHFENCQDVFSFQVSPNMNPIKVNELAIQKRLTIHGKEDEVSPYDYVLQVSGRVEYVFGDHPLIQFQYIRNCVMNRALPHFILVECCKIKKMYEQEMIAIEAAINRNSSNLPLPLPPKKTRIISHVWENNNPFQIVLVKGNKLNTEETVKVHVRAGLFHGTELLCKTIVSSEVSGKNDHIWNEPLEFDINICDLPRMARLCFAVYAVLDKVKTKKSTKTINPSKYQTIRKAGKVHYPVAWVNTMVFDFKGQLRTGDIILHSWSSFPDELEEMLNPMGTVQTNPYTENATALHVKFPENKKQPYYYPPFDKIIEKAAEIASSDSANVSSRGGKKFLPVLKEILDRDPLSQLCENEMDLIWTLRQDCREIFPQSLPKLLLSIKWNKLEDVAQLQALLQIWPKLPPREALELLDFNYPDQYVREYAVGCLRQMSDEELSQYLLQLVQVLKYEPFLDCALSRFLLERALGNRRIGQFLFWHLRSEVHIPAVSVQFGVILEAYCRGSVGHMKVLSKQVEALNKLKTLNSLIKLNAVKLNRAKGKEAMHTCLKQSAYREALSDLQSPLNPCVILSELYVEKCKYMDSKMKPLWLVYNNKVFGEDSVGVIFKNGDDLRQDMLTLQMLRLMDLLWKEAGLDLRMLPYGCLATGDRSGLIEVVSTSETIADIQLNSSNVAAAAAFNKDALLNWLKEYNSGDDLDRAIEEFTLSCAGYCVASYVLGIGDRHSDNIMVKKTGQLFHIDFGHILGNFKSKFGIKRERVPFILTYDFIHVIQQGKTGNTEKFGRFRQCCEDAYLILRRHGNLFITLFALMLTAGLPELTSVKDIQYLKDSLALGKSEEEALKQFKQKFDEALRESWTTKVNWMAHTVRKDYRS
Chain of p110β (P27986 whole entry partner, species assumed): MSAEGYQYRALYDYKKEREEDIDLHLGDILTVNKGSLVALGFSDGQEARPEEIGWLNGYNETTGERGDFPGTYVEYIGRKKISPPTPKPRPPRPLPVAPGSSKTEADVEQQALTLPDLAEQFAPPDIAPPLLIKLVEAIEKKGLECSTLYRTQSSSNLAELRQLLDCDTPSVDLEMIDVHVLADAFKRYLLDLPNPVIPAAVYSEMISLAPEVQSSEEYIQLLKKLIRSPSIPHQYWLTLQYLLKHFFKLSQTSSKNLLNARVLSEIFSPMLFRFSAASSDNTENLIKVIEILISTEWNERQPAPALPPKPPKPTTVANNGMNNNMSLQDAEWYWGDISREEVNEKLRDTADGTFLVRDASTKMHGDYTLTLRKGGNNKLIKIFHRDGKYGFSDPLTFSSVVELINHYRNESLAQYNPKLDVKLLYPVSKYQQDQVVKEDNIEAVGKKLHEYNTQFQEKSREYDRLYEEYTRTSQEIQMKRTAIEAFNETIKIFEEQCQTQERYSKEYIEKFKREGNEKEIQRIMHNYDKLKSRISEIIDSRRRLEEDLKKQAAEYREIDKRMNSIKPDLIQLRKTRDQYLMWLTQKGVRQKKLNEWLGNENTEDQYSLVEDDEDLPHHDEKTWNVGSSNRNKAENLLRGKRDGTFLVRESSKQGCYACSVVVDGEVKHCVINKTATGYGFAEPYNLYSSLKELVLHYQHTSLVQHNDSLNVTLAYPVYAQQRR
T9 sequence (Q9C098 whole entry): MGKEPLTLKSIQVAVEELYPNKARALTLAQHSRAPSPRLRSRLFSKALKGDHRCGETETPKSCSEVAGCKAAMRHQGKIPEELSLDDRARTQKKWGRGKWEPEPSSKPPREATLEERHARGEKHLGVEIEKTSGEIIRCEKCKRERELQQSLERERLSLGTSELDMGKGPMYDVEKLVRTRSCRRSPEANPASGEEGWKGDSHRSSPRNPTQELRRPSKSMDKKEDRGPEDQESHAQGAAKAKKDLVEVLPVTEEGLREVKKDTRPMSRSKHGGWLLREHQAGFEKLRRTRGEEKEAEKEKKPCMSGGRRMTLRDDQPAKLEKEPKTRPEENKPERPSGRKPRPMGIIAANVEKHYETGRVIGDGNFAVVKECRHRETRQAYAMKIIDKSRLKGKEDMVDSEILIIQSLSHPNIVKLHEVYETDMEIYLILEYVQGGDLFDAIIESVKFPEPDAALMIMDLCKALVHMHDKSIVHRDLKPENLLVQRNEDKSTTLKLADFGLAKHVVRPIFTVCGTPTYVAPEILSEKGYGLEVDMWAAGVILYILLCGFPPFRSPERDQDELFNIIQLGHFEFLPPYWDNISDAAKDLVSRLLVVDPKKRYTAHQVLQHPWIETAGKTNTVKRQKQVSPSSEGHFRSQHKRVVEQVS
T6 sequence (Q13177 whole entry): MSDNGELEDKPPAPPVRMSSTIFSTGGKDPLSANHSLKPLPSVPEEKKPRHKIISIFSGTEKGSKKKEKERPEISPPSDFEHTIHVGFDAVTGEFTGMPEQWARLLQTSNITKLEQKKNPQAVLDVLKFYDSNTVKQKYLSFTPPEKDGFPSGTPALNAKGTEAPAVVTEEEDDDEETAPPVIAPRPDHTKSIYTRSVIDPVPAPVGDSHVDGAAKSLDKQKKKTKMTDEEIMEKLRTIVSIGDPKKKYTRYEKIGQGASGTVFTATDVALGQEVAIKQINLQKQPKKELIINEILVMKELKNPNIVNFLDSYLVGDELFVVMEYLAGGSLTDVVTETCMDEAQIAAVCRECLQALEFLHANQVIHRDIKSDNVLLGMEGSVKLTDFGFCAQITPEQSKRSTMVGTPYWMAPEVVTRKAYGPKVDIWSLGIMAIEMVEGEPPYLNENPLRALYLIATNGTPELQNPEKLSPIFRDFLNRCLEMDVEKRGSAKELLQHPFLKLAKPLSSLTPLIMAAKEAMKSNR
T2 sequence (Q00536 whole entry): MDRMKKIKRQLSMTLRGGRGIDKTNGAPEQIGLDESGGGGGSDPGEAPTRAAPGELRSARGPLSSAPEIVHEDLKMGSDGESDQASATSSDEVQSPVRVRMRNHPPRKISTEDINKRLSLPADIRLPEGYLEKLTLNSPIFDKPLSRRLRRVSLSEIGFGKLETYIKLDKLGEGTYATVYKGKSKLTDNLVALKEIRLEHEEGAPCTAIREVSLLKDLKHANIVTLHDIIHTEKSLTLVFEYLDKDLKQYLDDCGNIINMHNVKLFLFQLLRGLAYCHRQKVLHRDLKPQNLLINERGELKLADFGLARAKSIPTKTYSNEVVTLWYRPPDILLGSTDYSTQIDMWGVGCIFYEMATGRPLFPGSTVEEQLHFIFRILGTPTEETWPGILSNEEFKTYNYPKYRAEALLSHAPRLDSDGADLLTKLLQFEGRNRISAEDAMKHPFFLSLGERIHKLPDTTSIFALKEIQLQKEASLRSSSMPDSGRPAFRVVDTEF
Chain of p110γ (P48736 whole entry, species assumed): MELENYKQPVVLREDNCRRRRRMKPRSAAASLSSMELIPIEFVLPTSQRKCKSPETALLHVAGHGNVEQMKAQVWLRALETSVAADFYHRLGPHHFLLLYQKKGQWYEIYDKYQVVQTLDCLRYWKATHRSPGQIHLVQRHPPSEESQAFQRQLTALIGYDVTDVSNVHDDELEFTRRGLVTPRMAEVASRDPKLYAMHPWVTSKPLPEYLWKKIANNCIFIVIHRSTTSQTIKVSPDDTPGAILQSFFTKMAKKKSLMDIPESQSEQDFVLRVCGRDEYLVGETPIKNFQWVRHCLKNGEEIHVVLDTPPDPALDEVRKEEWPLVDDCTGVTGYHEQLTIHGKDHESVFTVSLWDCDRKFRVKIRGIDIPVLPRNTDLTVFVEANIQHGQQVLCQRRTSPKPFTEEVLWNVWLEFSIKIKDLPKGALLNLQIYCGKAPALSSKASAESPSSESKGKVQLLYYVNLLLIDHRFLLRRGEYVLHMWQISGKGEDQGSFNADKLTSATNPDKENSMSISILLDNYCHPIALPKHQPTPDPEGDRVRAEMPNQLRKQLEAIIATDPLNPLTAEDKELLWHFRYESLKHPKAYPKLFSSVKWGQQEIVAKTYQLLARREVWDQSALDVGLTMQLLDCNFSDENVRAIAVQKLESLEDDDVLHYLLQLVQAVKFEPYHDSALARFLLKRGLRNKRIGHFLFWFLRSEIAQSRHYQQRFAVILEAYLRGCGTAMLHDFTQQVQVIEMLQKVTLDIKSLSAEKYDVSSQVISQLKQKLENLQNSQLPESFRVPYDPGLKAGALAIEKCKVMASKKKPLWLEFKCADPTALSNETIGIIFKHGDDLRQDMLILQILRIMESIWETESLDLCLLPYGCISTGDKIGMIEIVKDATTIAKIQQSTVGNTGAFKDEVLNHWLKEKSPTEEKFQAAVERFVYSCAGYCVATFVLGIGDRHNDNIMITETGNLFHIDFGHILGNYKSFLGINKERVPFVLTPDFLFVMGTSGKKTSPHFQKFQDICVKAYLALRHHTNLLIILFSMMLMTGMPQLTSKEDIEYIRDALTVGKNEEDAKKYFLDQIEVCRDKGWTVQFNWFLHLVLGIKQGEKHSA
T10 sequence (P07948 whole entry): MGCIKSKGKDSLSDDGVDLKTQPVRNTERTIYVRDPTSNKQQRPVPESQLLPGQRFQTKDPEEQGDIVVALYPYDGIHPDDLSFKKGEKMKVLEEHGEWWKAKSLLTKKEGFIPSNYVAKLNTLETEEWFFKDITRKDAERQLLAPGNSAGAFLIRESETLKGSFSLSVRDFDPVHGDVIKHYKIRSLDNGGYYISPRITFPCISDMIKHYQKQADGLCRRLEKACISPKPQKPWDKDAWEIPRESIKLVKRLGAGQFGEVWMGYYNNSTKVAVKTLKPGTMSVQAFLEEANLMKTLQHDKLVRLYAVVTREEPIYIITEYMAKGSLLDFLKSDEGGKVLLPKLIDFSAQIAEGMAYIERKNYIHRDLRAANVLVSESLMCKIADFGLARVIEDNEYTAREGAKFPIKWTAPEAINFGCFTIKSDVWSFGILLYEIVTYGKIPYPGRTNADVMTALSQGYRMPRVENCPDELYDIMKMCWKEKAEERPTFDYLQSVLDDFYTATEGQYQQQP

Cc1ccccc1-n1c(C(C)Nc2nc(N)nc3nc[nH]c23)nc2cccc(C)c2c1=O (centres unmarked) [CAL-130]
IC50 [1]: 0.0013 µM
IC50 [2]: 0.0061 µM
IC50 [3]: 0.115 µM
IC50 [4]: 0.056 µM
calcium flux in response to TCR cross-linking [5]: attenuated
Akt phosphorylation [6]: reduction
Percent of Control Binding [7]: 100%
Percent of Control Binding [8]: 100%
Percent of Control Binding [9]: 100%
Percent of Control Binding [10]: 100%
Percent of Control Binding [11]: 100%
Percent of Control Binding [12]: 100%
Percent of Control Binding [13]: 100%
Percent of Control Binding [14]: 100%
Percent of Control Binding [15]: 100%
Percent of Control Binding [16]: 100%
reduction in total thymocyte number in comparison to controls [17]: 18 fold
